In ChEMBL document CHEMBL4043188, “Structural characterization of a new steroidal saponin from Agave angustifolia var. Marginata and a preliminary investigation of its in vivo antiulcerogenic activity and in vitro membrane permeability property” (Bioorg Med Chem Lett, 2017):
Active and inactive are the calls of the source. No cut-off for these calls is given here.

System: Mus musculus
Assay: Antiulcerogenic activity against acidified ethanol induced-gastric lesions in Swiss mouse at 100 mg/kg, po administered 1 hr prior to acidified ethanol challenge measured after 1 hr
Format: functional, organism-based

Row | Compound | Activity
1 | C[C@@H]1CC[C@@]2(OC1)O[C@H]1C[C@H]3[C@@H]4C[C@H](O)[C@H]5C[C@@H](O[C@@H]6O[C@H](CO)[C@H](O[C@@H]7O[C@H](CO)[C@@H](O)[C@H](O[C@@H]8O[C@H](CO)[C@@H](O[C@@H]9O[C@@H](C)[C@H](O)[C@@H](O)[C@H]9O)[C@H](O)[C@H]8O)[C@H]7O[C@@H]7O[C@H](CO)[C@@H](O)[C@H](O[C@@H]8O[C@H](CO)[C@@H](O)[C@H](O)[C@H]8O)[C@H]7O)[C@H](O)[C@H]6O)CC[C@]5(C)[C@H]4CC(=O)[C@]3(C)[C@H]1[C@@H]2C | Active
2 | CO[C@]1(CC[C@@H](C)CO[C@H]2O[C@@H](CO)[C@H](O)[C@@H](O)[C@@H]2O)O[C@H]2C[C@H]3[C@@H]4CC[C@H]5C[C@@H](O[C@@H]6O[C@H](CO)[C@H](O[C@@H]7O[C@H](CO)[C@@H](O)[C@H](O[C@@H]8O[C@H](CO)[C@@H](O)[C@H](O[C@@H]9O[C@H](CO)[C@@H](O)[C@H](O)[C@H]9O)[C@H]8O)[C@H]7O[C@@H]7OC[C@@H](O[C@@H]8O[C@@H](C)[C@H](O)[C@@H](O)[C@H]8O)[C@H](O)[C@H]7O)[C@H](O)[C@H]6O)CC[C@]5(C)[C@H]4CC[C@]3(C)[C@H]2[C@@H]1C | Active
